Data from PMC8953834, “A Helquat-like Compound as a Potent Inhibitor of Flaviviral and Coronaviral Polymerases” (Molecules, 2022).

Experiments:
in vitro = conditions: pig
TBEV (strain Hypr) = assay: microbe, parasite or virus in culture; format: cell-based, tick-borne encephalitis virus; conditions: for EC50: Tick-borne encephalitis virus, 48 h, read-out: EC50, anti-TBEV activity
SARS-CoV-2 RdRp = biological target: T1, SARS-CoV-2 RdRp (Severe acute respiratory syndrome coronavirus 2, UniProt P0DTD1); assay: biochemical
T1 construct: except for the full length nsp12 protein, which was expressed in insect cells; His6 (C); made in house; host or cells: nsp12 in insect cells; nsp7 and nsp8 in E. coli BL-21 CodonPlus (DE3)-RIL

TBEV RdRp = TBEV RdRp (Tick-borne encephalitis virus, UniProt Q01299); assay: biochemical
Chain of TBEV RdRp (Q01299 2512-3414 limits assumed): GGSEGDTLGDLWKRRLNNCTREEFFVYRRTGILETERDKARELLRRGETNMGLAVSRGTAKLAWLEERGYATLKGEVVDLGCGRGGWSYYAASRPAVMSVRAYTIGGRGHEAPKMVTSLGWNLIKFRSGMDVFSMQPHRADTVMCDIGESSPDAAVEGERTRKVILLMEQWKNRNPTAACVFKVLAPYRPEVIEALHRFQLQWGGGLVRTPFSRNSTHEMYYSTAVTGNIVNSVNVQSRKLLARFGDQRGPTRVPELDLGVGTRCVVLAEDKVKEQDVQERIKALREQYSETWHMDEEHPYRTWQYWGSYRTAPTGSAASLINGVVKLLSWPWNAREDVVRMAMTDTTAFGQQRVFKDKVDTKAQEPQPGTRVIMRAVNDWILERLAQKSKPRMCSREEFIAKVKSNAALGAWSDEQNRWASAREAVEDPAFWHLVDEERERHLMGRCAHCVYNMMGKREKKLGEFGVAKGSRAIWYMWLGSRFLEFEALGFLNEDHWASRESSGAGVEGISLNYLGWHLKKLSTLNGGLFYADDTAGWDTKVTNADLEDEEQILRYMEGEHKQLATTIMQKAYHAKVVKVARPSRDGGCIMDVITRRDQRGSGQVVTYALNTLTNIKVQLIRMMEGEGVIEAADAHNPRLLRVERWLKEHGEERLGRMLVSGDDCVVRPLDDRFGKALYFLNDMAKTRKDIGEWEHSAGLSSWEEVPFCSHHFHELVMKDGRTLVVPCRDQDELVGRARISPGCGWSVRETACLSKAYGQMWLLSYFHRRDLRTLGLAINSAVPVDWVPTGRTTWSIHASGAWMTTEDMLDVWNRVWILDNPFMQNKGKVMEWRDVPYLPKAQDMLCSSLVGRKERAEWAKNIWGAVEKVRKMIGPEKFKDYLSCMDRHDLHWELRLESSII

NTAV RdRp = NTAV RdRp (Ntaya virus, UniProt K0BRZ6); assay: Radioactive polymerase assay (IC50), NTAV RdRp; format: biochemical; conditions: radioactively labeled elongation products, [α-32P]-ATP, hairpin RNA
Chain of NTAV RdRp (K0BRZ6 2523-3427): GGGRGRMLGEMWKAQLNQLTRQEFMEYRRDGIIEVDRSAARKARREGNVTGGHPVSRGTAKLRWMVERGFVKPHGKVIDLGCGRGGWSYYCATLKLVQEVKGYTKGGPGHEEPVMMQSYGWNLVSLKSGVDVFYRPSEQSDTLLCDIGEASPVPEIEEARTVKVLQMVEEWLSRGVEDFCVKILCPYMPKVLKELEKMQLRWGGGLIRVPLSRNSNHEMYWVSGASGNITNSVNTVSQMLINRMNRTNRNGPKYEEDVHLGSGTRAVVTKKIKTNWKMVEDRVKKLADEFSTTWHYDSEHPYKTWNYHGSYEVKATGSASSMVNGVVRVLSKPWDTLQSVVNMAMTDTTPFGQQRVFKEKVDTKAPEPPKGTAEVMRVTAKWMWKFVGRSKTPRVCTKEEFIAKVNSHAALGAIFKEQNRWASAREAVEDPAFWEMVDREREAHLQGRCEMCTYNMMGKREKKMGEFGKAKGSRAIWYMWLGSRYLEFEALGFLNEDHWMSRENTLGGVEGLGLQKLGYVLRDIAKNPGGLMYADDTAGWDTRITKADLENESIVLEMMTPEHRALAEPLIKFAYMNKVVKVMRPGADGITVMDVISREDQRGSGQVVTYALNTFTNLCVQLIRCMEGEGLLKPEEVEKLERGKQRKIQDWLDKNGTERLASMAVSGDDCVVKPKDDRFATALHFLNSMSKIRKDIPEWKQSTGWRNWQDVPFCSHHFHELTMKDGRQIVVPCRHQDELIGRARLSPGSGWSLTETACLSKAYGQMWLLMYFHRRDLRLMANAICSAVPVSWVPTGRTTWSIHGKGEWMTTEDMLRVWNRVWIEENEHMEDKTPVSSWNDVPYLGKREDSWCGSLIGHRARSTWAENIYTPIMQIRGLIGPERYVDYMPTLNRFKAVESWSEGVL

[1] = biological target: T2, SARS-CoV-2 RdRp (nsp7, nsp8 and nsp12) (Severe acute respiratory syndrome coronavirus 2, UniProt P0DTD1); format: biochemical
T2 construct: except for the full length nsp12 protein, which was expressed in insect cells; His6 (C); made in house; host or cells: nsp12 in insect cells; nsp7 and nsp8 in E. coli BL-21 CodonPlus (DE3)-RIL

[2] = Cytotoxicity (XTT) in Caco-2 cells; conditions: human
Caco-2 cells = assay: Cytotoxicity (XTT) in Caco-2 cells
flaviviral RdRp = format: biochemical, Flaviviridae (JEV, NTAV, TBEV, YFV, ZIKV)
JEV RdRp = biological target: T3, JEV RdRp (Japanese encephalitis virus, UniProt P32886); assay: biochemical
T3 construct: NS5 proteins and SARS-CoV-2 nsp12, nsp8 and nsp7 were expressed with appropriate purification and folding tags; His6-TEV site (N); made in house; host or cells: E. coli BL-21 CodonPlus (DE3)-RIL
T3 sequence (P32886 2528-3432 limits assumed): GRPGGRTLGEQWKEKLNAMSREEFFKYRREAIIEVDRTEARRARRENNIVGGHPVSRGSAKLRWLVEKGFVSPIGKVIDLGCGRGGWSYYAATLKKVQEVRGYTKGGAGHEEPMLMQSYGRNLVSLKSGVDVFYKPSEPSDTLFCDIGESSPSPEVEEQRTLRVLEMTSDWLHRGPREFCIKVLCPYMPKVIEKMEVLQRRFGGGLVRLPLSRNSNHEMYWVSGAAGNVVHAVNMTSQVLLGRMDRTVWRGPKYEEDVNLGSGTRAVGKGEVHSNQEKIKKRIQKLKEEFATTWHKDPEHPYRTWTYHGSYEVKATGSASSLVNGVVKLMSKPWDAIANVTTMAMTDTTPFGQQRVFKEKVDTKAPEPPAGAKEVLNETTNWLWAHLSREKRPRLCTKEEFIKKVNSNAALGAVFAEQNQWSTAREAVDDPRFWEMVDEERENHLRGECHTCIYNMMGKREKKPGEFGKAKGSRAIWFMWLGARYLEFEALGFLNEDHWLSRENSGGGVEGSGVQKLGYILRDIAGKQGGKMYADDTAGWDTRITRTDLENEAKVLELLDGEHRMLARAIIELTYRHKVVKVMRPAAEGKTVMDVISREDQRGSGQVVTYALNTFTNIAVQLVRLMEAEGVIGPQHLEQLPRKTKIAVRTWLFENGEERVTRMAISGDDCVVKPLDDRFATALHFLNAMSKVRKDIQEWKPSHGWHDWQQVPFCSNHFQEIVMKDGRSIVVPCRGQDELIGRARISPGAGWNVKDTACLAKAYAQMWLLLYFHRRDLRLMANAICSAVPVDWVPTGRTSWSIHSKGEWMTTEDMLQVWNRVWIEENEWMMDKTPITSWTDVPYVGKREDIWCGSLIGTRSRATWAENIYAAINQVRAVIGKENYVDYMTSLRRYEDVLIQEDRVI

Calu-3 cells = assay: Cytotoxicity (XTT) in Calu-3 cells
[3] = Cytotoxicity (XTT) in Calu-3 cells; conditions: human
SARS-CoV-2 [4] = format: cell-based
SARS-CoV-2 [5] = assay: SARS-CoV-2 yield reduction assay (plaque assay) in VERO-E6 cells; format: cell-based; conditions: MOI 0.04, 3 days
ZIKV RdRp = ZIKV RdRp (Zika virus, UniProt A0A1L5YKZ2); assay: Radioactive polymerase assay (IC50), ZIKV RdRp; format: biochemical; conditions: radioactively labeled elongation products, [α-32P]-ATP, hairpin RNA
Chain of ZIKV RdRp (A0A1L5YKZ2 2521-3423): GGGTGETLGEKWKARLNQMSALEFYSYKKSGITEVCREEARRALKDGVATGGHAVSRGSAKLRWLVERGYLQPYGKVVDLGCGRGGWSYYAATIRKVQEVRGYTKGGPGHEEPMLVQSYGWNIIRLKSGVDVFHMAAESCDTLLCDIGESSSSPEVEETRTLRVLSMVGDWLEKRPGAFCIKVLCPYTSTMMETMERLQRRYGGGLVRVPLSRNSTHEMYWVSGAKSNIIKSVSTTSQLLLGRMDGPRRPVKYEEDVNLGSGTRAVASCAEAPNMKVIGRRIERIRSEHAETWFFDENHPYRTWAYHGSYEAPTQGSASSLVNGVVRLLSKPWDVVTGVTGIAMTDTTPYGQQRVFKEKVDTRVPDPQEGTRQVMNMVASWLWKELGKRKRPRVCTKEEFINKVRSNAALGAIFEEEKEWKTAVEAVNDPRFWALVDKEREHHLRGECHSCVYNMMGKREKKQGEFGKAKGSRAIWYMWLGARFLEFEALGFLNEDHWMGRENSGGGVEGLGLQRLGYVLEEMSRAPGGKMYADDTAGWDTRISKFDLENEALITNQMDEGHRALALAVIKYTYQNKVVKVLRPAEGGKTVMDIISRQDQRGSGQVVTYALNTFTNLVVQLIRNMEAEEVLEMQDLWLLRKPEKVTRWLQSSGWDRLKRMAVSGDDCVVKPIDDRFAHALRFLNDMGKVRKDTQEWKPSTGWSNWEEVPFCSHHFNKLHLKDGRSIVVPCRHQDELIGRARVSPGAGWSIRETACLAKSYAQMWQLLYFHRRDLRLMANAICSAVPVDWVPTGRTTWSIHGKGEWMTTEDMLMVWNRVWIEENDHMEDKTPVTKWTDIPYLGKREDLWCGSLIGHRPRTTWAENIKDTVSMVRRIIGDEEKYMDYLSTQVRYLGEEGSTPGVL

SARS-CoV-2 [6] = assay: Anti-SARS-CoV-2 immunofluorescence assay (IFA) in Caco-2 cells; format: cell-based; conditions: Severe acute respiratory syndrome coronavirus 2, MOI 0.002, read-out: EC50, inhibition of SARS-CoV-2 replication (nucleoprotein IFA)
VERO-E6 cells = assay: Cytotoxicity (XTT) in VERO-E6 cells; conditions: 3 days
YFV RdRp = YFV RdRp (Yellow fever virus, UniProt P03314); assay: biochemical
Chain of YFV RdRp (P03314 2507-3411 limits assumed): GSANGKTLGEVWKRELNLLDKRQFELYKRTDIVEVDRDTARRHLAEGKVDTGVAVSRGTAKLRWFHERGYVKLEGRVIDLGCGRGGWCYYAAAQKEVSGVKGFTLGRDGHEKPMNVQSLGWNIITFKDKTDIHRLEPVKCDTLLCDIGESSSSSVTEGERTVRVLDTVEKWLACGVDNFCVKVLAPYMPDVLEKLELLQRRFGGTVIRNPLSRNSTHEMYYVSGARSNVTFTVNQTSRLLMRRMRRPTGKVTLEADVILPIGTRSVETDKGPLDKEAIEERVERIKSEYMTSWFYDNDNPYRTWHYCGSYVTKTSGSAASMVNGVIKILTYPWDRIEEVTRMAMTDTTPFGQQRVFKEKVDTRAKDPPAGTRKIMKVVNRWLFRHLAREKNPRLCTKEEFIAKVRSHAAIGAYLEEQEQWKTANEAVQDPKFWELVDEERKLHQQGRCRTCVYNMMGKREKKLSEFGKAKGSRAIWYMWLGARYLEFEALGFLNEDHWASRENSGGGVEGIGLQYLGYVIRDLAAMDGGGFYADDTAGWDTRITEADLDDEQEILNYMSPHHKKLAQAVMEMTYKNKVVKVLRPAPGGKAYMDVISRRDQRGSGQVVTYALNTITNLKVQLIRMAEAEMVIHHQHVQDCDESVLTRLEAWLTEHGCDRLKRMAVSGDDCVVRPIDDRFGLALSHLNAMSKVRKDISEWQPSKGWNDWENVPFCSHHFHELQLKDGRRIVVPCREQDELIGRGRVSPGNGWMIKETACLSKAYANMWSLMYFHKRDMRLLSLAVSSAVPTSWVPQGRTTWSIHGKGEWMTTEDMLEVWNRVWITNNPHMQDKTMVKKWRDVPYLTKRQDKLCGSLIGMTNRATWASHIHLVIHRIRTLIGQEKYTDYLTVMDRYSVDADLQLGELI

SARS-CoV-2 [7] = assay: Anti-SARS-CoV-2 cytopathic effect (CPE)-based assay in Calu-3 cells; format: cell-based; conditions: Severe acute respiratory syndrome coronavirus 2, 72 h, MOI 0.04, 3 days, XTT, read-out: EC50, inhibition of virus-induced CPE
WNV RdRp = biological target: T4, WNV RdRp (West Nile virus, UniProt Q9Q6P4); assay: biochemical
T4 construct: NS5 proteins and SARS-CoV-2 nsp12, nsp8 and nsp7 were expressed with appropriate purification and folding tags; His6-TEV site (N); made in house; host or cells: E. coli BL-21 CodonPlus (DE3)-RIL

SARS-CoV-2 [8] = assay: Anti-SARS-CoV-2 immunofluorescence assay (IFA) in VERO-E6 cells; format: cell-based; conditions: Severe acute respiratory syndrome coronavirus 2, Vero C1008, 72 h, MOI 0.02, 3 days, read-out: EC50, inhibition of SARS-CoV-2 (nucleoprotein IFA)

## C[C@@]1(O)[C@H](O)[C@@H](CO)O[C@H]1n1ccc2c(N)ncnc21 [7-deaza-2′-CMA, 7-deaza-2′-C-methyladenosine, reference compound]
In vitro
  CC50: > 50 µM
TBEV (strain Hypr)
  EC50: 0.43 ± 0.06 µM

## Cc1c(C)c2c(c3c1CC[n+]1ccc(/C=C4\Sc5ccccc5N4C)cc1-3)-c1cccc(/C=C3\Sc4ccccc4N3C)[n+]1CC2 [PR673]
In vitro
  CC50: > 50 µM
SARS-CoV-2 RdRp
  IC50: 4 ± 0.2 µM
TBEV RdRp
  IC50: 3.6 ± 0.2 µM
NTAV RdRp
  IC50: 3.1 ± 0.2 µM
[1]
  PR673 concentration at which synthesis of RNA was totally blocked: above 12.5 µM
[2]
  CC50 at 3 days: > 50 µM
Caco-2 cells
  cytotoxicity at the highest used concentration: mild cytotoxicity
Flaviviral RdRp
  inhibition of RNA synthesis by flaviviral RdRps: strong inhibition of RNA synthesis in low micromolar concentrations
JEV RdRp
  IC50: 3.9 ± 0.4 µM
Calu-3 cells
  cytotoxicity at the highest used concentration: mild cytotoxicity
[3]
  CC50 at 3 days: > 50 µM
SARS-CoV-2 [4]
  inhibition of virus replication (virus-induced CPE) in screen: inhibited the replication of the virus
SARS-CoV-2 [5]
  activity compared with remdesivir in yield reduction assay: much less active than the COVID-19 drug remdesivir
SARS-CoV-2 [5]; at 50 µM
  reduction in viral plaques: 58%
ZIKV RdRp
  IC50: 4.9 ± 0.5 µM
SARS-CoV-2 [6]
  EC50: 17 µM
VERO-E6 cells
  cell toxicity: no cell toxicity
YFV RdRp
  IC50: 3 ± 0.1 µM
TBEV (strain Hypr)
  anti-TBEV activity in comparison to 7-deaza-2′-CMA: almost four-fold higher
  compound concentration of complete inhibition of TBEV replication: 0.4 µM
  EC50: 0.11 µM
SARS-CoV-2 [7]
  EC50: 18 µM
WNV RdRp
  IC50: 3.4 ± 0.2 µM
SARS-CoV-2 [8]
  EC50: 29 µM
